Measured values taken from patent publication US11465990B2, “Heterocyclic antiestrogens” (SUN PHARMA ADVANCED RESEARCH COMPANY LIMITED, priority 2015, dated 2022).

tested on: MCF-7 cells; experiment: MCF-7 cell growth inhibition assay; type: cell-based; settings: Homo sapiens, MCF7, 120 h, MCF-7 cells plated in presence of estradiol (1 nM), five days incubation, Presto Blue viability
Procedure: MCF-7 Cell Growth Inhibition Assay
MCF-7 cells were plated in 96 well plate in the presence of estradiol (1 nM) and incubated overnight. After 24 hours test compound was added at various concentrations and incubated for five days. On the fifth day, cell viability was evaluated using Presto Blue Cell Viability Reagent. Percentage growth inhibition was calculated as follows: 100−[(O.D. of sample)*100/O.D. of vehicle control] wherein O.D. is optical density.

Row | Compound | inhibition at 1 µM [%]
1 | CNC/C=C\c1ccc(C2Oc3ccc(O)cc3C(C)=C2c2cccc(O)c2)cc1 (centres unmarked) [Compound 1] | 64.1
2 | CC1=C(c2cccc(O)c2)C(c2ccc(/C=C\CN(C)C)cc2)Oc2ccc(O)cc21 (centres unmarked) [Compound 2] | 62.2
3 | CCCCCCCCCCCCNC/C=C\c1ccc(C2Oc3ccc(O)cc3C(C)=C2c2cccc(O)c2)cc1 (centres unmarked) [Compound 3] | 68.5
4 | CCCCCCCCCCCCNC/C=C/c1ccc(C2Oc3ccc(O)cc3C(C)=C2c2cccc(O)c2)cc1 (centres unmarked) [Compound 4] | 56.2
5 | CC1=C(c2cccc(O)c2)C(c2ccc(/C=C\CNCCN(C)C)cc2)Oc2ccc(O)cc21 (centres unmarked) [Compound 6] | 55.5
6 | CC1=C(c2cccc(O)c2)C(c2ccc(/C=C\CNCCCCCCCCCSCCCC(F)(F)C(F)(F)F)cc2)Oc2ccc(O)cc21 (centres unmarked) [Compound 7, 3-(3-hydroxyphenyl)-4-methyl-2-(4-{(Z)-3-[9-(4,4,5,5,5-pentafluoropentylsulfanyl)nonylamino]propenyl}phenyl)-2H-chromen-6-ol] | 85.3
7 | CC1=C(c2cccc(O)c2)C(c2ccc(/C=C/CNCCCCCCCCCSCCCC(F)(F)C(F)(F)F)cc2)Oc2ccc(O)cc21 (centres unmarked) [Compound 8] | 59.1
8 | CC1=C(c2cccc(O)c2)C(c2ccc(/C=C\CN3CC[C@@H](C)C3)cc2)Oc2ccc(O)cc21 (some centres unmarked) [Compound 9] | 79.8
9 | CC1=C(c2cccc(O)c2)C(c2ccc(/C=C/CN3CC[C@@H](C)C3)cc2)Oc2ccc(O)cc21 (some centres unmarked) [Compound 10] | 52.3
10 | CC1=C(c2cccc(O)c2)C(c2ccc(/C=C\CN3CCCCC3)cc2)Oc2ccc(O)cc21 (centres unmarked) [Compound 11, 3-(3-hydroxyphenyl)-4-methyl-2-[4-((Z)-3-piperidin-1-ylpropenyl)phenyl]-2H-chromen-6-ol] | 65.1
11 | CC1=C(c2cccc(O)c2)C(c2ccc(/C=C/CN3CCCCC3)cc2)Oc2ccc(O)cc21 (centres unmarked) [Compound 12, 3-(3-hydroxyphenyl)-4-methyl-2-[4-((E)-3-piperidin-1-ylpropenyl)phenyl]-2H-chromen-6-ol] | 57.6
12 | CC1=C(c2cccc(O)c2)C(c2ccc(/C=C\CN3CCOCC3)cc2)Oc2ccc(O)cc21 (centres unmarked) [Compound 13] | 5.5
13 | CC1=C(c2cccc(O)c2)C(c2ccc(/C=C\CN3CCN(C)CC3)cc2)Oc2ccc(O)cc21 (centres unmarked) [Compound 14] | 79.1
14 | CC1=C(c2cccc(O)c2)C(c2ccc(/C=C/CN3CCN(C)CC3)cc2)Oc2ccc(O)cc21 (centres unmarked) [Compound 15] | 52.2
15 | CC1=C(c2cccc(O)c2)C(c2ccc(/C=C\CN3CCC[C@@H](N)C3)cc2)Oc2ccc(O)cc21 (some centres unmarked) [Compound 16] | 56.7
16 | CC1=C(c2cccc(O)c2)C(c2ccc(/C=C\CN3CCN(CCO)CC3)cc2)Oc2ccc(O)cc21 (centres unmarked) [Compound 17] | 43.4
17 | CC1=C(c2cccc(OC(=O)C(C)(C)C)c2)C(c2ccc(/C=C\CN3CC[C@@H](C)C3)cc2)Oc2ccc(OC(=O)C(C)(C)C)cc21 (stereo partly drawn) [Compound 19, 2,2-Dimethylpropionic Acid 3-[3-(2,2-dimethylpropionyloxy)phenyl]-4-methyl-2-{4-[(Z)-3-((R)-3-methylpyrrolidin-1-yl)propenyl]phenyl}-2H-chromen-6-yl ester] | 29.4
18 | COc1cccc(C2=C(C)c3cc(OC)ccc3OC2c2ccc(/C=C\CN3CC[C@@H](C)C3)cc2)c1 (stereo partly drawn) [Compound 20, (R)-1-((Z)-3-{4-[6-methoxy-3-(3-methoxyphenyl)-4-methyl-2H-chromen-2-yl]phenyl}allyl)-3-methylpyrrolidine] | 15.4
19 | CNCC#Cc1ccc(C2Oc3ccc(O)cc3C(C)=C2c2cccc(O)c2)cc1 (centres unmarked) [Compound 21] | 60.1
20 | CCCCCCCCCCCCNCC#Cc1ccc(C2Oc3ccc(O)cc3C(C)=C2c2cccc(O)c2)cc1 (centres unmarked) [Compound 22] | 29

Row | Compound | inhibition at 1 µM [%]
21 | CNC/C(C)=C/CCC=C(C)C [Compound 23] | 36.8
22 | CC1=C(c2cccc(O)c2)C(c2ccc(C#CCN3CC[C@@H](C)C3)cc2)Oc2ccc(O)cc21 (some centres unmarked) [Compound 24] | 62.5
23 | CC1=C(c2cccc(O)c2)C(c2ccc(C#CCN3CCCCC3)cc2)Oc2ccc(O)cc21 (centres unmarked) [Compound 25, 3-(3-hydroxyphenyl)-4-methyl-2-[4-(3-piperidin-1-yl-prop-1-ynyl)phenyl]-2H-chromen-6-ol] | 42.5
24 | CC1=C(c2cccc(O)c2)C(c2ccc(C#CCN3CCN(C)CC3)cc2)Oc2ccc(O)cc21 (centres unmarked) [Compound 26] | 55.2
25 | CC1=C(c2cccc(O)c2)C(c2ccc(C#CCCN3CCN(C)CC3)cc2)Oc2ccc(O)cc21 (centres unmarked) [Compound 27] | 28.8
26 | CCCNC1CCN(C)C1 (centres unmarked) [Compound 31] | 19.9
27 | CC1=C(c2cccc(O)c2)C(c2ccc(/C=C/CN3CCSCC3)cc2)Oc2ccc(O)cc21 (centres unmarked) [Compound 33] | 22.8
28 | CC1=C(c2cccc(O)c2)C(c2ccc(/C=C\CN3CCC(C)CC3)cc2)Oc2ccc(O)cc21 (centres unmarked) [Compound 34] | 35
29 | CCCCCCCCCNC/C=C/c1ccc(C2Oc3ccc(O)cc3C(C)=C2c2cccc(O)c2)cc1 (centres unmarked) [Compound 35] | 68.6
30 | CC1=C(c2cccc(O)c2)C(c2ccc(/C=C\CNCCCCCCCCCF)cc2)Oc2ccc(O)cc21 (centres unmarked) [Compound 38] | 49.9
31 | CC1=C(c2cccc(O)c2)C(c2ccc(/C=C/CNCCCCCCCCCF)cc2)Oc2ccc(O)cc21 (centres unmarked) [Compound 39, 2-{4-[(E)-3-(9-Fluorononylamino)propenyl]phenyl}-3-(3-hydroxyphenyl)-4-methyl-2H-chromen-6-ol] | 89.7
32 | CC1=C(c2cccc(O)c2)C(c2ccc(/C=C\C(C)N3CCCC3)cc2)Oc2ccc(O)cc21 (centres unmarked) [Compound 40] | 29.3
33 | CC1=C(c2cccc(O)c2)C(c2ccc(/C=C/CNCCCCCCCCCCF)cc2)Oc2ccc(O)cc21 (centres unmarked) [Compound 41] | 77.6
34 | CC1=C(c2cccc(O)c2)C(c2ccc(C#CCNCCCCCCCCCF)cc2)Oc2ccc(O)cc21 (centres unmarked) [Compound 42] | 62
35 | CC1=C(c2cccc(O)c2)C(c2ccc(/C=C\CNCCCCCCCCCCF)cc2)Oc2ccc(O)cc21 (centres unmarked) [Compound 43] | 47.9
36 | CC1=C(c2cccc(O)c2)C(c2ccc(/C=C/CNCCCCCCCCC(F)F)cc2)Oc2ccc(O)cc21 (centres unmarked) [Compound 44] | 67.2
37 | CC1=C(c2cccc(O)c2)C(c2ccc(/C=C\CNCCCCCCCCC(F)F)cc2)Oc2ccc(O)cc21 (centres unmarked) [Compound 46] | 88.6
38 | COc1cccc(C2=C(C)c3cc(O)ccc3OC2c2ccc(/C=C/CNCCCCCCCCCF)cc2)c1 (centres unmarked) [Compound 47] | 67.4
39 | CC1=C(c2cccc(O)c2)C(c2ccc(/C=C\CN(C)CCCCCCCCCF)cc2)Oc2ccc(O)cc21 (centres unmarked) [Compound 48] | 58.9
40 | CC1=C(c2cccc(O)c2)C(c2ccc(/C=C/CNCCCCCCCCF)cc2)Oc2ccc(O)cc21 (centres unmarked) [Compound 49] | 67.3

same assay, conditions: at 1 μM; MCF-7 cells plated in presence of estradiol (1 nM), five days incubation, Presto Blue viability

Row | Compound | % inhibition [%]
41 | 3-(3-Methoxy phenyl)-4-methyl-2-{4-[(Z)-3-((R)-3-methyl pyrrolidin-1-yl)propenyl]phenyl}-2H-chromen-6-ol [Compound 28] | 55.9
42 | CCCNC1CCN(C)C1 (centres unmarked) [Compound 32] | 27.4
43 | CCCCCCCCCNC/C=C\c1ccc(C2Oc3ccc(O)cc3C(C)=C2c2cccc(O)c2)cc1 (centres unmarked) [Compound 37] | 57.2
44 | CC1=C(c2cccc(O)c2)C(c2ccc(/C=C/CN(C)CCCCCCCCCF)cc2)Oc2ccc(O)cc21 (centres unmarked) [Compound 45] | 71.4
